In paper PMC8703873, “Structure and Activity of a Selective Antibiofilm Peptide SK-24 Derived from the NMR Structure of Human Cathelicidin LL-37” (Pharmaceuticals, 2021):
≈ marks a conversion by molar mass, not a printed value. Non-standard residues stand in square brackets, D forms with d. Residues, ends and D or L forms follow the SMILES beside them. Bip = N[C@@H](Cc1ccc(-c2ccccc2)cc1)C(=O)O

Key:
[1] = HPLC retention time (measure of peptide hydrophobicity); format: physicochemical; details: chromatographic, Waters C8 symmetry hydrophobic column, as described in ref 34; used as indicator of peptide hydrophobicity
From the text: In the membrane-bound LL-37 structure determined by 3D NMR spectroscopy, a hydrophobic gap exists (Figure 1A). The location of a hydrophilic S9 on the hydrophobic surface of LL-37 splits the long helix into two hydrophobic domains (gold sticks). The SK-24 peptide we identified here corresponds to the long hydrophobic domain [26]. The amino acid sequence of SK-24, along with LL-37 and its derived antimicrobial peptides, is depicted in Figure 1B. Peptide parameters, including net charge, hydrophobic content, Boman index, GRAVY, hydrophobicity, and hydrophobic moment of each peptide, were calculated using online tools, such as the APD [8] and HeliQuest (Table 1). Except for the shortest RI-10 (net charge +3), LL-37 and its other derived peptides have net charges +5 or +6, above the average net charge (+3.3) of natural antimicrobial peptides registered in the APD [8, 35, 36]. Overall, the hydrophobic percentages (Pho) of these peptides calculated in the APD are proportional to the hydrophobicity and hydrophobic moment calculated by HeliQuest in Table 1. Of note, LL-37 has the highest net charge (+6) and Boman index but the lowest Pho%, GRAVY, and hydrophobic moment.
All peptides were chemically synthesized and purified to >95% (Genemed Synthesis, San Antonio, TX, USA). The quality of each peptide was determined based on mass spectrometry (MS) and high-performance liquid chromatography (HPLC). Peptide stock solutions were freshly made by solubilizing in autoclaved distilled water, and their concentrations were quantitated using UV spectroscopy based on the absorbance difference at 215 and 225 nm as described. Peptide retention time was measured on a Waters C8 symmetry hydrophobic column as described. Other chemicals were purchased from Sigma (St. Louis, MO, USA) unless specified.

A. baumannii B28-16 = format: cell-based, Acinetobacter baumannii
Protocol: (§1) The antibiotic-resistant pathogens used in this study include the Gram-positive bacteria Enterococcus faecium V286-17 and Staphylococcus aureus USA300 LAC and the Gram-negative bacteria Klebsiella pneumoniae E406-17, Acinetobacter baumannii B28-16, Pseudomonas aeruginosa E411-17, and Escherichia coli E423-17. All bacteria were cultivated in tryptic soy broth (TSB) at 37 °C, 220 rpm.
(§2) The antibacterial activity of peptides was evaluated using a standard broth microdilution protocol with minor modifications. In brief, peptides were made at various concentrations, 10 μL per well in a 96-well polystyrene microplate. Logarithmic phase bacterial cultures (i.e., optical density (OD) at 600 nm ≈ 0.5) were diluted to 0.001 OD, and aliquots of 90 μL were added to each well. Untreated bacterial culture and medium were included as positive and negative controls, respectively. Plates were incubated at 37 °C overnight and read at 630 nm using a ChroMate Microplate Reader (Awareness Technology, Palm City, FL, USA). […] Our previously designed peptide 17BIPHE2 [32] was included as a positive control, and RI-10, a peptide without antibacterial activity in rich media, was utilized as a negative control.

P. aeruginosa E411-17 = format: cell-based, Pseudomonas aeruginosa; details: E411-17
Protocol: as §1, §2

Human red blood cells = experiment: Hemolytic assay; format: cell-based; details: red cells of human, 1 h
Protocol: Human red blood cells (hRBCs, the UNMC Blood Bank) were washed three to five times with saline (Fisher Scientific, Waltham, MA, USA) at 800 g for 10 min each time, until the supernatant was clear. The supernatant was discarded, and hRBCs were suspended in saline at a final density of 2%. Ninety microliters of hRBC suspensions were added to each well of 96-well plates containing 10 µL of 10× serially diluted peptides. After incubation at 37 °C for 1 h, the plates were centrifuged at 1500 rpm for 5 min. About 80 µL of the supernatant was carefully pipetted to a new 96-well microplate and read at 545 nm to measure the amount of hemoglobin released. The positive control was 1% Triton X-100, and the negative control was saline. The percentage of hRBC lysis was calculated based on the hemoglobin released.

tHPLC (HPLC retention time) [1]: 10.753 min
MIC (A. baumannii B28-16): 4 to 8 µM
MIC (P. aeruginosa E411-17): 8 µM (≈ 18 µg/mL)
Compound: CC(C)C[C@H](NC(=O)[C@H](CC(N)=O)NC(=O)[C@H](CCCNC(=N)N)NC(=O)[C@@H](CC(C)C)NC(=O)[C@H](Cc1ccc(-c2ccccc2)cc1)NC(=O)[C@H](CC(=O)O)NC(=O)[C@H](CCCCN)NC(=O)[C@@H](CC(C)C)NC(=O)[C@H](CCCNC(=N)N)NC(=O)[C@H](CCC(N)=O)NC(=O)[C@@H](NC(=O)[C@@H](CC(C)C)NC(=O)[C@H](CCCNC(=N)N)NC(=O)[C@H](CCCCN)NC(=O)[C@H](Cc1ccc(-c2ccccc2)cc1)NC(=O)CN)C(C)C)C(=O)N[C@H](C(N)=O)C(C)C [Peptide 17BIPHE2] (H-G[Bip]KR[dL]VQR[dL]KD[Bip][dL]RNLV-NH2; N-terminus assumed)
HC50 (50% hemolytic concentration) (Human red blood cells): ~ 200 µM
